A short description of assay [1]: microbe, parasite or virus in culture. As to conditions: Mycobacterium tuberculosis, 96 h, read-out: pIC50 (converted).
Assay [2] in a line: microbe, parasite or virus in culture. To be noted: Mycobacterium tuberculosis, 72 h, read-out: pIC50 (converted).

The structures appear in SMILES notation.

Consider `O=C(CSc1cnn[nH]1)Nc1ccc(Cl)cn1`, for which the IC50 in assay [1] was greater than 501 µM; in assay [2], 99.4 µM.

For `Cc1csc(CNC(=O)c2ccco2)n1`, the IC50 in assay [1] and in assay [2] was greater than 501 µM throughout.

As to `CCSc1nc2ccccc2c(=O)n1CCCO`, the IC50 in assay [1] is 278 µM; in assay [2], 181 µM.

As for `Cc1ccc(NC(=O)NCCS(=O)(=O)N(C)C)cc1Cl`, the IC50 in assay [1] was 401 µM; in assay [2] it was 205 µM.

With `CC(=O)c1cccc(COC(=O)c2cccnc2)c1`, the IC50 is 269 µM in assay [1] and 231 µM in assay [2].

In the case of `O=C(NC1CCCOc2ccccc21)c1ccncc1` (centres undefined), the IC50 in assay [1] and in assay [2] was greater than 501 µM throughout.

Take `Cc1ccccc1C(=O)N1CC[C@@H]2CN(c3ncccn3)CCO[C@@H]2C1`: the IC50 in assay [1] and in assay [2] was greater than 50.1 µM each time.

Consider `Cc1ccccc1-c1[nH][nH]c(=O)c1CCN`, for which the IC50 is greater than 501 µM in assay [1] and 230 µM in assay [2].

With `CC1Cc2ccccc2N1C(=O)c1ccccn1` (centres undefined), the IC50 in assay [1] and in assay [2] was greater than 501 µM in each case.

Consider `O=C(c1[nH]nc(C2CC2)c1Cl)N1CCCC1`, for which the IC50 in assay [1] and in assay [2] was greater than 50.1 µM throughout.

`CC(C)NC(=O)NCC1(N2CCOCC2)CCSC1` (centres undefined): the IC50 in assay [1] and in assay [2] was greater than 501 µM throughout.

Consider `NC1(c2nc(-c3ccccc3)c[nH]2)CCCC1`, for which the IC50 is 258 µM in assay [1] and 176 µM in assay [2].

In the case of `Cc1cc(CN2CCc3nc(C(C)C)nc(O)c3CC2)c(C)s1`, the IC50 in assay [1] and in assay [2] was greater than 50.1 µM throughout.

For `CC(C)CC(C(=O)N(C)Cc1ncnn1C)N1CCCCC1=O` (centres undefined), the IC50 in assay [1] and in assay [2] was greater than 50.1 µM each time.

Consider `Cc1nsc(C(=O)NCCc2cccs2)n1`, for which the IC50 in assay [1] is 32.7 µM; in assay [2], 13.5 µM.

For `Cc1nn(CCN(C)c2ccccc2)c(N)c1C#N`, the IC50 in assay [1] is greater than 501 µM; in assay [2], 265 µM.

Consider `Brc1cc2c(cc1CN1CCCNCC1)OCO2`, for which the results for the IC50 in assay [1] and in assay [2] were 460 µM and 112 µM, respectively.

Turning to `CCc1nnc2n1CCN(C(=O)CN(CC)CC)C2`, the IC50 in assay [1] and in assay [2] was greater than 50.1 µM throughout.

For `CS(=O)(=O)CCN1CCC(Oc2ccc(F)cc2)CC1`, the IC50 in assay [1] is 280 µM; in assay [2], 221 µM.

For `O=C(NCc1[nH]ncc1Br)Nc1nc2c(s1)COCC2`, the figures for the IC50 in assay [1] and in assay [2] were greater than 501 µM and 328 µM, respectively.

Regarding `O=C(CNc1cccc(CO)c1)NCc1ccc(Cl)s1`, the results for the IC50 in assay [1] and in assay [2] were greater than 501 µM and 134 µM, respectively.

For `COc1ccc(C(N)CO)c2ccccc12` (centres undefined), the IC50 was 313 µM in assay [1] and 193 µM in assay [2].

As for `COc1ccc(-c2cccc(-c3ccn(CCN(C)C)n3)c2)nn1`, the IC50 in assay [1] is 16.3 µM; in assay [2] it was 19.9 µM.

As for `CCn1nnc2c1C(COCC(=O)N(C)C)CN(Cc1ccoc1)C2` (centres undefined), the IC50 in assay [1] and in assay [2] was greater than 50.1 µM each time.

In the case of `CCCn1nccc1C(=O)Nc1nc(C)c(C)s1`, the IC50 in assay [1] was 47.4 µM; in assay [2], greater than 50.1 µM.

Turning to `Cc1cc(C)cc(OCCNC(=O)CSCC(N)=O)c1`, the IC50 in assay [1] is greater than 501 µM; in assay [2], 139 µM.

As for `CC(C)C(C)(C#N)NC(=O)CNc1cccc(F)c1` (centres undefined), the IC50 in assay [1] was 292 µM; in assay [2] it was 307 µM.

For `CNC(=O)CCN1CCC(=Cc2ccccc2)CC1`, the IC50 was greater than 501 µM in assay [1] and 258 µM in assay [2].

For `CCSc1nc2ccccc2c(=O)n1OCC(=O)OC`, the IC50 in assay [1] was greater than 50.1 µM; in assay [2], 24.9 µM.

On to `Cc1cnn(CCNCc2nccn2C)c1`, for which the results for the IC50 in assay [1] and in assay [2] were 294 µM and 306 µM, respectively.

Regarding `Cc1ccc2nc(CCN)oc2c1`, the IC50 is 23.3 µM in assay [1] and 78.4 µM in assay [2].

For `O=C(NC1CCc2ccc(F)cc21)c1c[nH]nn1` (centres undefined), the IC50 was 399 µM in assay [1] and greater than 501 µM in assay [2].

For `NC1CCN(c2ncc(C(F)(F)F)cc2Cl)C1` (centres undefined), the IC50 is 83.4 µM in assay [1] and 123 µM in assay [2].

On to `Fc1ccc(CSc2nnnn2CC2CCCO2)cc1` (centres undefined), for which the IC50 in assay [1] is 80.8 µM; in assay [2] it was 39 µM.

`CCCn1cc(CNc2nc(C3CC3)no2)cn1`: the IC50 in assay [1] is 151 µM; in assay [2] it was 125 µM.

As for `CC[C@H](N)C(=O)N(C)CCOc1cccc(Cl)c1`, the IC50 in assay [1] was 263 µM; in assay [2], 377 µM.

`COC1CCN(C(=O)Cc2ccc(N(C)C)cc2)C1` (centres undefined): the IC50 was 122 µM in assay [1] and 183 µM in assay [2].

For the molecule `CC(=O)c1ccc(Cl)c(S(=O)(=O)NC(CN)C2CC2)c1` (centres undefined), the IC50 was 111 µM in assay [1] and 116 µM in assay [2].

For `O=C1N(Cc2ccc(F)c(F)c2)CCCC12CCN(C1CCCCC1)C2` (centres undefined), the IC50 in assay [1] was 26.3 µM; in assay [2] it was 15.1 µM.

Turning to `N#Cc1cccc(OCCn2cnc(C#N)n2)c1`, the IC50 in assay [1] is 304 µM; in assay [2] it was greater than 501 µM.

Take `Cc1cc(Br)oc1C(=O)N1CCCN(C)CC1`: the figures for the IC50 in assay [1] and in assay [2] were greater than 501 µM and 248 µM, respectively.

In the case of `CCCc1nnc(N2CCC3(CC2)OCC(C)O3)s1` (centres undefined), the values for the IC50 in assay [1] and in assay [2] were 45.5 µM and 34.3 µM, respectively.

For `O=C(COc1ccc(F)cc1)Nc1ccon1`, the IC50 was greater than 501 µM in assay [1] and 186 µM in assay [2].

Turning to `Cc1ccc(C(CN)N2CCCC2)o1` (centres undefined), the figures for the IC50 in assay [1] and in assay [2] were greater than 501 µM and 101 µM, respectively.

On to `Nc1cc(C2CCN(C(=O)Cc3ccsc3)CC2)no1`, for which the IC50 in assay [1] was greater than 501 µM; in assay [2] it was 264 µM.

For the molecule `Cc1c[nH]c(C(=O)NC2COc3ccccc3C2)n1` (centres undefined), the IC50 in assay [1] and in assay [2] was greater than 501 µM in each case.

As to `CNC(=O)C(C)Sc1nnnn1-c1ccccc1C` (centres undefined), the values for the IC50 in assay [1] and in assay [2] were 213 µM and 210 µM, respectively.

For the molecule `COc1cccc(CN2CCC3(CC2)OCC(C)O3)c1` (centres undefined), the IC50 in assay [1] is 244 µM; in assay [2], 394 µM.

As for `CCOC(=O)c1cc(C(C)(O)CCC=C(C)C)on1` (centres undefined), the results for the IC50 in assay [1] and in assay [2] were 25.8 µM and 36.4 µM, respectively.

As for `CCc1ccc(CN(C)C(=O)c2cccn2C)nc1`, the IC50 in assay [1] is 257 µM; in assay [2], 175 µM.

Regarding `COc1ccc(NC(C(N)=O)c2ccc(Br)cc2)cn1` (centres undefined), the IC50 in assay [1] was 198 µM; in assay [2], 148 µM.

For `COC(=O)CSc1nc(N)c2ccsc2n1`, the IC50 was greater than 501 µM in assay [1] and 250 µM in assay [2].

As for `CSCCOC(=O)c1ccn(C(C)C)n1`, the IC50 was 248 µM in assay [1] and 241 µM in assay [2].

For `CN(C)c1cc(C2CCCN(C(=O)c3noc4c3CCCC4)C2)ccn1` (centres undefined), the results for the IC50 in assay [1] and in assay [2] were 35.7 µM and 40 µM, respectively.

As to `O=c1c2sccc2nc2n1CCN(Cc1cc(F)ccc1F)CC2`, the values for the IC50 in assay [1] and in assay [2] were greater than 50.1 µM and 25 µM, respectively.

In the case of `Cc1nc(C2CCCN2Cc2cc(Cl)c3c(c2)OCCO3)no1` (centres undefined), the IC50 in assay [1] is 15.9 µM; in assay [2] it was 22.3 µM.

With `CNC(=O)c1cccc(CNC(C)c2ccc(F)cc2N(C)C)c1` (centres undefined), the IC50 in assay [1] and in assay [2] was greater than 50.1 µM in each case.

`Cc1ccc(C(=O)NCCCN(C)S(C)(=O)=O)cc1-n1cccc1`: the IC50 in assay [1] was greater than 50.1 µM; in assay [2], 30.9 µM.

Consider `COc1ccc(C(=O)CCN(C)C)cc1`, for which the IC50 was 294 µM in assay [1] and 114 µM in assay [2].

In the case of `CN1CCOC(CNCCOc2cccc(C#N)c2)C1` (centres undefined), the IC50 in assay [1] and in assay [2] was greater than 50.1 µM in each case.

For the molecule `Cc1cc(C[C@@H]2COC[C@H]2NCc2ccc(C(C)C)cc2)on1`, the IC50 in assay [1] is 11.5 µM; in assay [2], 34.6 µM.

Take `Cc1ccccc1OCC(O)CN1CCC[C@@H]1CO` (some centres undefined): the IC50 in assay [1] was greater than 501 µM; in assay [2], 280 µM.

As for `c1ccc(CNc2cc(-n3cccn3)ncn2)cc1`, the figures for the IC50 in assay [1] and in assay [2] were greater than 501 µM and 11.2 µM, respectively.

In the case of `Cc1ccc(F)c(CN2CC[C@H](N)C2)c1`, the values for the IC50 in assay [1] and in assay [2] were 225 µM and 213 µM, respectively.

As for `CC1CCC(NC(=O)Cn2cnc(C#N)n2)CC1` (centres undefined), the results for the IC50 in assay [1] and in assay [2] were 98.1 µM and 101 µM, respectively.

As to `CCCc1cc(C(=O)NCCCC(=O)N2Cc3ccccc3C2)[nH]n1`, the IC50 in assay [1] and in assay [2] was greater than 50.1 µM throughout.

For the molecule `CCCNc1nnc(SC2CCOC2)s1` (centres undefined), the IC50 in assay [1] is 70.9 µM; in assay [2], 259 µM.

For the molecule `O=C(NCC(O)c1ccc(Cl)cc1)Nc1ccccn1` (centres undefined), the IC50 in assay [1] was greater than 501 µM; in assay [2], 106 µM.

As for `O=C1CCCN1Cc1nnc(SCc2ccc3c(c2)CCC3)o1`, the values for the IC50 in assay [1] and in assay [2] were 46.5 µM and 22 µM, respectively.

Consider `O=C(c1cccc(F)c1)N1CCN(c2nccs2)CC1`, for which the IC50 in assay [1] was greater than 501 µM; in assay [2] it was 228 µM.

`CCNC1=NN=C(c2ccc(OC)c(F)c2)CS1`: the values for the IC50 in assay [1] and in assay [2] were 134 µM and 137 µM, respectively.

As for `NCc1nc(-c2cccc(C(F)(F)F)c2)no1`, the IC50 in assay [1] was 130 µM; in assay [2], 262 µM.

As to `COc1ccccc1CC(=O)Nc1ncc(C(N)=O)s1`, the IC50 in assay [1] and in assay [2] was greater than 501 µM in each case.

As for `Cn1nc(CCN)c2ccccc21`, the IC50 in assay [1] is 197 µM; in assay [2] it was 57.8 µM.

As to `Cc1cccc2[nH]cc(CCN)c12`, the figures for the IC50 in assay [1] and in assay [2] were 229 µM and 124 µM, respectively.

Take `Cc1nnc(SC[C@H](O)COCc2ccccc2)s1`: the IC50 in assay [1] is 133 µM; in assay [2], 209 µM.

Consider `CN(C)C(=O)CN1CCOC(CCc2ccccc2)C1` (centres undefined), for which the IC50 in assay [1] and in assay [2] was greater than 501 µM throughout.

For `CCOCc1cnc2n1CCN(C(=O)Cc1ccccn1)C2C` (centres undefined), the IC50 in assay [1] and in assay [2] was greater than 50.1 µM in each case.

Regarding `CCCc1ccc(S(=O)(=O)N2CCNCC2)cc1`, the IC50 is greater than 501 µM in assay [1] and 299 µM in assay [2].

In the case of `CCS(=O)(=O)N(C)CCCNc1ccc(Cl)cn1`, the figures for the IC50 in assay [1] and in assay [2] were 163 µM and 129 µM, respectively.

Turning to `CC(C)OCc1cccc(CNc2cnn(C)c(=O)c2Cl)c1`, the IC50 in assay [1] was 5.63 µM; in assay [2], 19.1 µM.

With `Cc1cc(CN2CCN(C(=O)CCc3cccs3)CC2)on1`, the values for the IC50 in assay [1] and in assay [2] were 10.5 µM and 4.03 µM, respectively.

Source of the values: ChEMBL document CHEMBL3988442, “University of Dundee, Small-Polar-MMV Screening Library” (2021).
